Measurements published in publication PMC10343216 (Molecules, 2023).
Where “and” joins values, the source holds several entries; their conditions need not be identical. Identical values can stand only once. Like-named read-outs stand apart in the source and are kept apart here.

How the values were obtained:
rat 11β-HSD1 = target: T1, rat 11β-HSD1 (Rattus norvegicus, UniProt P16232); assay: Rat 11β-HSD1 assay in rat liver microsomes (DHC to CORT, HPLC-MS/MS); type: biochemical; conditions: for remaining activity at 100 µM: read-out: 11β-HSD1 residual activity relative to the control (DMSO); for Mode Action: rat 11β-HSD1, judged by α and Lineweaver-Burk plot; for α (mixed model): rat liver 11β-HSD1
T1 construct: Rat 11β-HSD1 in liver microsomes catalyzes the conversion of DHC to CORT; from tissue; host or cells: liver microsomes of male Sprague-Dawley rats (age 3 months), prepared in house
Description: The preparation of rat liver microsomes was carried out as previously reported. In this preparation procedure, rat livers were homogenized in sucrose (0.25 M) containing PBS (0.01 M, pH 7.2). […] The pellets were resuspended in cold PBS by homogenization, and the concentration of microsomal protein was determined using the Bio-Rad Protein Assay Kit (CAT#: P0010; Beyotime, Jiangsu, China) according to the manufacturer’s instructions.
(§1) The 11β-HSD1 activity was determined by measuring the reductive catalysis of 11keto-steroid substrates, cortisone for human 11β-HSD1 and DHC for rat 11β-HSD1, which were converted to cortisol and CORT, respectively. The 11β-HSD1 assay was carried out as previously described with a minor modification. […] At the end of the reaction, acetonitrile (200 µL, CAT#: UN1648; Sigma) and internal standard testosterone-d5 (IS, T-d5, 10 μL, Zzbio, Shanghai, China) were added to the system, the organic layer was extracted, and 10 µL was injected into the HPLC-MS/MS system to measure cortisol, or CORT, as previously described.
(§2) The amount of cortisol, or CORT, in the organic layer was determined using an Acquity UPLC equipped with a BEH C18 column (2.1 mm, 50 mm, 1.7 m) and a 0.2 mm stainless steel frit filter and an XEVO TQD triple quadrupole mass spectrometer (Waters, Milford, MA, USA), as previously described. The mobile phase was a mixture of solvents A (0.1% formic acid in water) and B (acetonitrile) combined in the following gradient program: 5–5% B (0–0.5 min), 5–95% B (0.5–1.0 min), 95–95% B (1.0–2.0 min), and 95–5% B (2.0–2.1 min). The injection volume was 6 µL, and the flow rate was 0.40 mL/min. Before the second injection, a re-equilibration period of 0.9 min was set. The temperatures were 4 °C for the sample and 40 °C for column. Mass spectrometric detection was carried out using a Waters Corporation XEVO TQD triple quadruple mass spectrometer with an ESI source. For cortisol and IS, the multiple reaction monitoring mode transitions were m/z 358.3→340.3 and m/z 237.2→194.3. Data collection and instrument control were performed using Masslynx 4.1 software (Waters Corp., Milford, MA, USA). Cortisol, or CORT, standards were prepared by dissolving them in methanol. […] The enzymatic activity obtained by measuring the conversion rate (%) of cortisone to cortisol for human 11β-HSD1 or DHC to CORT for rat 11β-HSD1 was calculated.
(§3) The time curve of the 11β-HSD1 reaction was prepared by a linear regression using GraphPad version 8.0 (GraphPad, San Diego, CA, USA). […] The lineweaver-Burk plot after linear regression was also carried out to judge the mode of action.

[1] = ZINC database ref 39; cited from earlier work
human 11β-HSD1 = target: T2, human 11β-HSD1 (Homo sapiens, UniProt P28845); assay: Human 11β-HSD1 assay in human liver microsomes (cortisone to cortisol, HPLC-MS/MS); type: biochemical; conditions: for Mode Action: human 11β-HSD1, judged by α and Lineweaver-Burk plot; for IC50 / remaining activity at 100 µM: 200 nM cortisone, 15 min; for IC50: Mean ± SEM, n = 4; for remaining activity at 100 µM: human, 100 µM compound, read-out: 11β-HSD1 residual activity relative to the control (DMSO)
T2 construct: Human 11β-HSD1 in liver microsomes catalyzes the conversion of cortisone to cortisol; tissue Iphase (Beijing, China) H2610; host or cells: human liver microsomes (purchased)
Description: as §1, §2, §3

[2] = rat, 100 µM compound, 200 nM DHC, 15 min
[3] = human liver microsomes, read-out: IC50
[4] = substrate, human liver microsomes, Michaelis-Menten
[5] = substrate, rat liver microsomes, Michaelis-Menten

T1 sequence (P16232 whole entry): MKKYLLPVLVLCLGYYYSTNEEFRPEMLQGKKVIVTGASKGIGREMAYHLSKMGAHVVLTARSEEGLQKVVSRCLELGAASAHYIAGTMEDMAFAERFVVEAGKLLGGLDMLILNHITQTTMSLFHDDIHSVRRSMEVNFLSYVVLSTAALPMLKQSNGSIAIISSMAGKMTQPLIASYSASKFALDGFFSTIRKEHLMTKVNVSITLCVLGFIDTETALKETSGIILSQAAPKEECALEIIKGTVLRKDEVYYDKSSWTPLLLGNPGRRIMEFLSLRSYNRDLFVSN
T2 sequence (P28845 whole entry): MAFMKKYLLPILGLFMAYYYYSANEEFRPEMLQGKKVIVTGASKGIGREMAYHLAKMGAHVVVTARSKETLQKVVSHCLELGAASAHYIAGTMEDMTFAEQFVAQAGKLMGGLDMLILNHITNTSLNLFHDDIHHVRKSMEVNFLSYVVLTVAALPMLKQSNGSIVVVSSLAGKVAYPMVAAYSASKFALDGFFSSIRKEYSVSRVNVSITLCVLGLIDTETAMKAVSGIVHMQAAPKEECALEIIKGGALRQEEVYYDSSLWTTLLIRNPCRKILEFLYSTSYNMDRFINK

Row | SMILES | remaining activity at 100 µM (rat 11β-HSD1; [2]) | LogP [1] | Mode Action (human 11β-HSD1) | remaining activity at 100 µM (human 11β-HSD1) | Ki (human 11β-HSD1) | IC50 (human 11β-HSD1; IC50, human liver microsomes) | IC50 (rat 11β-HSD1) | also measured
1 | COc1ccc(C(C)(C)c2ccc(OC)cc2)cc1 [BPAME, 4,4′-(propane-2,2-diyl)bis(methoxybenzene)] | > 50% | 4.03 | competitive inhibitors | ≤ 50% | – | – | – | IC50 (rat 11β-HSD1; rat liver microsomes, 200 nM DHC, 15 min, Mean ± SEM, n = 4, read-out: IC50): 206 ± 2.16 µM; IC50 (human 11β-HSD1; [3]): 33.1 ± 0.57 µM; Ki (human 11β-HSD1; human liver microsomes, enzyme kinetics-inhibition (mixed model), read-out: Ki (inhibition constant, measured)): 33.8 µM
2 | C[C@]12CCC(=O)C=C1CC[C@@H]1[C@@H]2C(=O)C[C@@]2(C)[C@H]1CC[C@]2(O)C(=O)CO [cortisone, reference compound] | – | – | – | – | – | – | – | Km (human 11β-HSD1; [4]): 0.93 ± 0.22 µM; Vmax (human 11β-HSD1; [4]): 253.2 ± 20.5 pmol/mg/min
3 | Cc1cc(C(C)(C)c2ccc(O)c(C)c2)ccc1O [DMBPA, 2,2-bis(4-hydroxy-3-methylphenyl)propane] | > 50% | 4.041 and 4.04 | competitive inhibitors | ≤ 50% | 31 µM | 30.2 ± 0.71 µM | – | –
4 | CC(C)c1cc(C(C)(C)c2ccc(O)c(C(C)C)c2)ccc1O [BPG, 4,4′-(propane-2,2-diyl)bis(2-isopropylphenol)] | ≤ 50% | 5.671 | competitive inhibitors | ≤ 50% | 5.33 µM | 5.06 ± 0.07 µM | 104 ± 1.52 µM | Ki (rat 11β-HSD1): 88.6 µM; Mode Action (rat 11β-HSD1): mixed/competitive inhibitors; α (mixed model) (rat 11β-HSD1): 5.78
5 | C[C@]12CC(=O)[C@H]3[C@@H](CCC4=CC(=O)CC[C@@]43C)[C@@H]1CC[C@@H]2C(=O)CO [DHC, 11-dehydrocorticosterone, reference compound] | – | – | – | – | – | – | – | Km (rat 11β-HSD1; [5]): 0.94 ± 0.09 µM; Vmax (rat 11β-HSD1; [5]): 1072 ± 115.5 pmol/mg/min
6 | Cc1cc(C(C)(C)c2cc(C)c(O)c(C)c2)cc(C)c1O [TMBPA, 2,2-bis(4-hydroxy-3,5-dimethylphenyl)propane] | – | – | – | > 50% | – | – | – | 11β-HSD1 residual activity relative to the control (DMSO) (rat 11β-HSD1; [2]): ineffective; IC50 (human 11β-HSD1; [3]): 319.2 ± 2.78 µM
7 | CC(C)(c1ccc(O)c(-c2ccccc2)c1)c1ccc(O)c(-c2ccccc2)c1 [BPH, 2,2-bis(2-hydroxy-5-biphenylyl)propane] | ≤ 50% | 6.758 | competitive inhibitors | ≤ 50% | 0.44 µM | 0.75 ± 0.02 µM | 74.2 ± 0.98 µM | Ki (rat 11β-HSD1): 74.6 µM; Mode Action (rat 11β-HSD1): mixed/competitive inhibitors; α (mixed model) (rat 11β-HSD1): ∞
8 | C=CCc1cc(C(C)(C)c2ccc(O)c(CC=C)c2)ccc1O [DABPA, 2,2′-diallyl BPA] | > 50% | 4.881 | competitive inhibitors | ≤ 50% | 14 µM | 13.4 ± 0.19 µM | 132 ± 1.66 µM | –
9 | CC(C)(c1ccc(O)cc1)c1ccc(O)cc1 [BPA, bisphenol A, reference compound] | ≤ 50% | 3.424 and 3.42 | – | > 50% | – | 297 ± 2.99 µM | 36.8 ± 1.09 µM | –
